pEC50: −log10 of the molar value. Calls of active or inactive are those of the source. The rule behind the calls is not given here.
Key:
[1] = molecular target: T1, Retinoic acid receptor RXR-alpha (Homo sapiens, UniProt P19793); assay: (§1) Agonist activity at human RXRalpha expressed in […] cells by luciferase reporter gene assay; format: functional, cell-based, COS-7
T1 sequence (P19793 whole entry): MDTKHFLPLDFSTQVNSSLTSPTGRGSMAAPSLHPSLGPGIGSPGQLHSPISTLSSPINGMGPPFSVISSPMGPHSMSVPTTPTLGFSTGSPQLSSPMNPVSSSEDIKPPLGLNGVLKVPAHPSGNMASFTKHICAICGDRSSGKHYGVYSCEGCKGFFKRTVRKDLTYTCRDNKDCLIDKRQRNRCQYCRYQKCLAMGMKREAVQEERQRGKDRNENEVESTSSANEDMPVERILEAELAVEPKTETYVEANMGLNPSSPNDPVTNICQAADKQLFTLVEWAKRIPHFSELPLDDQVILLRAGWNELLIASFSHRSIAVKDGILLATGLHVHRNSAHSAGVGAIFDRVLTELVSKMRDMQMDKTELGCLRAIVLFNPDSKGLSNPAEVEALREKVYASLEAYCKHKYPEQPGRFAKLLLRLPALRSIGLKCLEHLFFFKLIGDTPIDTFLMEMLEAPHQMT

[2] = molecular target: T2, Retinoic acid receptor RXR-alpha (Homo sapiens) (UniProt P19793); assay: Agonist activity at human RXRalpha expressed in […] cells at 1 uM by luciferase reporter gene assay; format: functional, cell-based; details: COS-7
T2 sequence (whole entry): T1 sequence (P19793 whole entry)

[3] = molecular target: T2, Retinoic acid receptor RXR-alpha (Homo sapiens); assay: as §1; format: functional, cell-based; details: COS-7

## CCN(c1ccc(C(=O)O)cn1)c1ccc2c(C(F)(F)F)cc(=O)n(CC)c2n1
[1]
  pEC50: 6.00

## CCN(c1ccc(C(=O)O)cn1)c1ccc2c(C(F)(F)F)cc(=O)n(CC(C)C)c2n1
[1]
  pEC50: 6.00
[2]
  Activity: Active

## CCN(c1ccc(C(=O)O)cn1)c1ccc2c(C)cc(=O)n(C)c2n1
[3]
  Activity: inactive

## CCN(c1ccc(C(=O)O)cn1)c1ccc2c(C(F)(F)F)cc(=O)n(C)c2n1
[1]
  pEC50: 6.00

Source: ChEMBL document CHEMBL1221261, “Fluorescent retinoid X receptor ligands for fluorescence polarization assay” (Bioorg Med Chem Lett, 2010)
